Patent publication US4377587A, “Arylamine derivatives and use thereof as microbicides” (Ciba-Geigy Corporation, priority 1980, dated 1983)

What was measured:
Phytophthora infestans [1] = format: in vivo, Phytophthora infestans (on tomato plants); details: tomato, spray 0.06% active ingredient, infested after 24 hours, evaluated after 5 days at 20° C.
Phytophthora infestans [2] = format: in vivo, Phytophthora infestans (on tomato plants); details: tomato, sprayed 0.06% active ingredient 22 hours after infestation, evaluated 5 days after infestation
Pythium debaryanum [3] = assay: Action on Pythium debaryanum on sugar beets, (a) after soil application; format: in vivo; details: sugar beet, 20 ppm of active ingredient based on volume of soil, 2-3 weeks at 20°-24° C.
From the text: (§1) Action on Pythium debaryanum on sugar beets
(a) Action after soil application
The fungus is cultivated on carrot chips nutrient solution and added to a mixture of earth and sand. Flower pots are filled with the infected soil, in which sugar beet seeds are then sown. Immediately after sowing, the test preparations formulated as wettable powders are poured in the form of aqueous suspensions over the soil (20 ppm of active ingredient, based on the volume of the soil). The pots are then stood for 2-3 weeks in a greenhouse at 20°-24° C. The soil is kept uniformly moist by gently spraying it with water. The emergence of the sugar beet plants as well as the number of healthy and sick plants are ascertained in evaluating the test.

Pythium debaryanum [4] = assay: Action on Pythium debaryanum on sugar beets, (b) after seed dressing application; format: in vivo; details: sugar beet, seed dressing 0.06%, 2-3 weeks at c. 20° C.
Procedure: as §1
(b) Action after seed dressing application
The fungus is cultivated on carrot chip nutrient solution and added to a mixture of earth and sand. Flower pots are filled with the infected soil and sugar beet seeds which have been treated with the test preparations formulated as seed dressing powders are sown therein (0.06% of one of the compounds of Tables 1 and 2). The pots are then stood in a greenhouse for 2-3 weeks at c. 20° C. The soil is kept uniformly moist by gently spraying it with water. The emergence of the sugar beet plants is ascertained in evaluating the test.

| SMILES | fungus attack compared with untreated control plants (100% attack), residual-protective (Phytophthora infestans [1]) | fungus attack compared with untreated and infected control plants (100% attack), residual curative (Phytophthora infestans [2]) | emergent plants (fully effective against Pythium pathogens), soil application (Pythium debaryanum [3]) | emergent plants (fully effective against Pythium pathogens), seed dressing application (Pythium debaryanum [4]) |
| --- | --- | --- | --- | --- |
| COC(=O)C(C)N(C(=O)CS(C)(=O)=O)c1c(C)ccc(N)c1C (centres unmarked) [Compound 14] | less than 10% |  |  |  |
| COCC(=O)N(c1c(C)cc(C)c([N+](=O)[O-])c1C)C(C)C(=O)OC (centres unmarked) [Compound 29] | less than 10% | less than 10% | over 90% | over 90% |
| COC(=O)C(C)N(C(=O)C1CCCO1)c1c(C)ccc([N+](=O)[O-])c1C (centres unmarked) [Compound 35] | less than 10% |  |  |  |
| COCC(=O)N(c1c(Cl)cccc1[N+](=O)[O-])C(C)C(=O)OC (centres unmarked) [Compound 57] | less than 10% |  |  |  |
| CCOC(=O)C(C)N(C(=O)COC)c1c(C)ccc([N+](=O)[O-])c1C (centres unmarked) [Compound 74] | less than 10% | less than 10% |  |  |
| COCC(=O)N(c1c(C)cc([N+](=O)[O-])c(C)c1C)C(C)C(=O)OC (centres unmarked) [Compound 78] | less than 10% |  |  |  |
| CCOCC(=O)N(c1c(Cl)ccc(N)c1C)C(C)C(=O)OC (centres unmarked) [Compound 88] | less than 10% |  |  |  |
| C=CCN(C(=O)COC)c1c(C)ccc([N+](=O)[O-])c1C [Compound 111] | less than 10% |  |  |  |
| C#CCN(C(=O)COC)c1c(C)ccc([N+](=O)[O-])c1C [Compound 117] | less than 10% |  |  |  |
| C#CCN(C(=O)COCC)c1c(C)ccc([N+](=O)[O-])c1C [Compound 122] | less than 10% |  |  |  |
| COC(=O)C(C)N(C(=O)C1CC1)c1ccc([N+](=O)[O-])cc1Cl (centres unmarked) [Compound 138] | less than 10% |  |  |  |
| COC(=O)C(C)N(C(=O)C1CC1)c1ccc(N)cc1Cl (centres unmarked) [Compound 139] | less than 10% |  |  |  |
| COCC(=O)N(c1c(C)c(C)c([N+](=O)[O-])c(C)c1C)C(C)C(=O)OC (centres unmarked) [Compound 141] | less than 10% | less than 10% |  |  |
| COC(=O)C(C)N(C(=O)C1CCCO1)c1c(C)c(C)c([N+](=O)[O-])c(C)c1C (centres unmarked) [Compound 144] | less than 10% |  |  |  |
| COCC(=O)N(c1c(C)c(C)c(N)c(C)c1C)C(C)C(=O)OC (centres unmarked) [Compound 158] | less than 10% |  | over 90% | over 90% |
| CCOCC(=O)N(c1c(C)c(C)c(N)c(C)c1C)C(C)C(=O)OC (centres unmarked) [Compound 159] | less than 10% |  |  |  |
| COC(=O)C(C)N(C(=O)COC(C)C)c1c(C)c(C)c(N)c(C)c1C (centres unmarked) [Compound 160] |  |  | over 90% | over 90% |
| COC(=O)C(C)N(C(=O)C1CCCO1)c1c(C)c(C)c(N)c(C)c1C (centres unmarked) [Compound 161] | less than 10% | less than 10% |  |  |
| COC(=O)C(C)N(C(=O)C1CCCO1)c1c(C)cc([N+](=O)[O-])c2ccccc12 (centres unmarked) [Compound 607] | less than 10% |  | over 90% | over 90% |
| COCC(=O)N(c1ccc([N+](=O)[O-])c2ccccc12)C(C)C(=O)OC (centres unmarked) [Compound 611] | less than 10% | less than 10% |  |  |
